Assay results from patent US6355799B1, “Substituted benzene compounds, process for their preparation, and herbicidal and defoliant compositions containing them” (ISK Americas Incorporated, priority 1997, dated 2002).

Columns and labels:
Format in all cases: in vivo
[1] = system: redroot pigweed (Amaranthus retroflexus, AMARE); assay: Post-emerge test, greenhouse herbicide activity screening; conditions: post-emerge, 14 days after application
Procedure, shortened: (§1)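 Visual ratings on a 0-100 scale (0 no damage, 100 all plants dead) were taken at 14 days after treatment. Rates of 15-1000 g ai/ha in acetone, 187 l/ha, were sprayed onto soil one day after planting (pre-emerge) or onto 2-3 leaf plants with 0.25% v/v surfactant (post-emerge).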

[2] = system: green foxtail (Setaria viridis, SETVI); assay: as above; conditions: post-emerge, 14 days after application, rating scale 0-100
Procedure, shortened: as §1

[3] = system: large crabgrass (Digitaria sanguinalis, DIGSA); assay: as above; conditions: post-emerge, 14 days after application, rating scale 0-100
Procedure, shortened: as §1

[4] = system: lambsquarters (Chenopodium album, CHEAL); assay: as above; conditions: post-emerge, 14 days after application, rating scale 0-100
Procedure, shortened: as §1

[5] = system: johnsongrass (Sorghum halepense, SORHA); assay: as above; conditions: post-emerge, 14 days after application, rating scale 0-100
Procedure, shortened: as §1

[6] = system: sicklepod (Cassia obtusifolia, CASOB); assay: as above; conditions: post-emerge, 14 days after application, rating scale 0-100
Procedure, shortened: as §1

[7] = system: barnyardgrass (Echinochloa crus-galli, ECHCG); assay: as above; conditions: post-emerge, 14 days after application, rating scale 0-100
Procedure, shortened: as §1

[8] = system: velvetleaf (Abutilon theophrasti, ABUTH); assay: as above; conditions: post-emerge, 14 days after application, rating scale 0-100
Procedure, shortened: as §1

[9] = system: ivyleaf morningglory (Ipomoea hederacea, IPOHE); assay: as above; conditions: post-emerge, 14 days after application, rating scale 0-100
Procedure, shortened: as §1

[10] = system: field corn (Zea mays L., var. Dekalb 535, CORN); assay: Pre-emerge test, crop safety; conditions: pre-emerge, 14 days after application, rating scale 0-100
Procedure, shortened: (§2)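 Sandy loam pots; pre-emerge: sown 1 d pre-spray, surface-watered after, then bottom-watered. Post-emerge: sown 8–21 d before, 2–3 leaf stage, + 0.25% v/v NIS, bottom-watered. Acetone, 187 l/ha track spray, 15–1000 g ai/ha. 0–100 injury score, day 14.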

[11] = system: upland rice (Oryza sp., var. Tebonnet, RICE); assay: Pre-emerge test, crop safety; conditions: pre-emerge, 14 days after application, rating scale 0-100
Procedure, shortened: as §2

[12] = system: field corn (Zea mays L., var. Dekalb 535, CORN); assay: Post-emerge test, crop safety; conditions: post-emerge, 14 days after application, rating scale 0-100
Procedure, shortened: (§3)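 Herbicidal damage is scored 0 (none) to 100 (complete plant death) two weeks after a simulated field spray. Rates span 15–1000 g ai/ha, delivered in acetone at 187 l/ha. For post-emergence treatments, plants have 2–3 leaves and the spray carries 0.25% v/v non-ionic surfactant.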

[13] = system: upland rice (Oryza sp., var. Tebonnet, RICE); assay: Post-emerge test, crop safety; conditions: post-emerge, 14 days after application, rating scale 0-100
Procedure, shortened: as §3

[14] = system: redroot pigweed (Amaranthus retroflexus, AMARE); assay: Pre-emerge test, greenhouse herbicide activity screening; conditions: pre-emerge, 14 days after application, rating scale 0-100
Procedure, shortened: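 Rating: 0–100 visual injury, 14 DAA. Application: acetone, 187 l/ha, 15–1000 g ai/ha, flat-fan track sprayer with nozzle 40–45 cm above soil or canopy. Post-emerge runs used 0.25% v/v surfactant on 2–3 leaf plants.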

[15] = system: green foxtail (Setaria viridis, SETVI); assay: as above; conditions: pre-emerge, 14 days after application, rating scale 0-100
Procedure, shortened: as §3

[16] = system: large crabgrass (Digitaria sanguinalis, DIGSA); assay: as above; conditions: pre-emerge, 14 days after application, rating scale 0-100
Procedure, shortened: as §3

[17] = system: lambsquarters (Chenopodium album, CHEAL); assay: as above; conditions: pre-emerge, 14 days after application, rating scale 0-100
Procedure, shortened: as §3

[18] = system: johnsongrass (Sorghum halepense, SORHA); assay: as above; conditions: pre-emerge, 14 days after application, rating scale 0-100
Procedure, shortened: as §3

[19] = system: sicklepod (Cassia obtusifolia, CASOB); assay: as above; conditions: pre-emerge, 14 days after application, rating scale 0-100
Procedure, shortened: as §3

[20] = system: barnyardgrass (Echinochloa crus-galli, ECHCG); assay: as above; conditions: pre-emerge, 14 days after application, rating scale 0-100
Procedure, shortened: as §3

[21] = system: velvetleaf (Abutilon theophrasti, ABUTH); assay: as above; conditions: pre-emerge, 14 days after application, rating scale 0-100
Procedure, shortened: as §3

[22] = system: ivyleaf morningglory (Ipomoea hederacea, IPOHE); assay: as above; conditions: pre-emerge, 14 days after application, rating scale 0-100
Procedure, shortened: as §3

COc1c(Cl)cc(F)c(-n2c(=O)cc(C(F)(F)F)n(C)c2=O)c1Sc1ccc2ccccc2c1 [17-4]
Post-emerge Herbicidal Activity AMARE (phytotoxicity rating) ([1]; 63 g ai/ha, rating scale 0-100 (0 no damage, 100 complete death)): 20 | Post-emerge Herbicidal Activity AMARE (phytotoxicity rating) ([1]; 250 g ai/ha, rating scale 0-100): 70 | Post-emerge Herbicidal Activity SETVI (phytotoxicity rating) ([2]; 63 g ai/ha): 0 | Post-emerge Herbicidal Activity SETVI (phytotoxicity rating) ([2]; 250 g ai/ha): 0 | Post-emerge Herbicidal Activity DIGSA (phytotoxicity rating) ([3]; 63 g ai/ha): 0 | Post-emerge Herbicidal Activity DIGSA (phytotoxicity rating) ([3]; 250 g ai/ha): 0 | Post-emerge Herbicidal Activity CHEAL (phytotoxicity rating) ([4]; 63 g ai/ha): 20 | Post-emerge Herbicidal Activity CHEAL (phytotoxicity rating) ([4]; 250 g ai/ha): 40 | Post-emerge Herbicidal Activity SORHA (phytotoxicity rating) ([5]; 63 g ai/ha): 0 | Post-emerge Herbicidal Activity SORHA (phytotoxicity rating) ([5]; 250 g ai/ha): 0 | Post-emerge Herbicidal Activity CASOB (phytotoxicity rating) ([6]; 63 g ai/ha): 10 | Post-emerge Herbicidal Activity CASOB (phytotoxicity rating) ([6]; 250 g ai/ha): 20 | Post-emerge Herbicidal Activity ECHCG (phytotoxicity rating) ([7]; 63 g ai/ha): 0 | Post-emerge Herbicidal Activity ECHCG (phytotoxicity rating) ([7]; 250 g ai/ha): 0 | Post-emerge Herbicidal Activity ABUTH (phytotoxicity rating) ([8]; 63 g ai/ha): 35 | Post-emerge Herbicidal Activity ABUTH (phytotoxicity rating) ([8]; 250 g ai/ha): 70 | Post-emerge Herbicidal Activity IPOHE (phytotoxicity rating) ([9]; 63 g ai/ha): 20 | Post-emerge Herbicidal Activity IPOHE (phytotoxicity rating) ([9]; 250 g ai/ha): 80 | phytotoxicity rating CORN ([10]; 63 g ai/ha): 0 | phytotoxicity rating CORN ([10]; 250 g ai/ha): 0 | phytotoxicity rating RICE ([11]; 63 g ai/ha): 0 | phytotoxicity rating RICE ([11]; 250 g ai/ha): 10 | Post-emerge Herbicidal Activity CORN (crop damage rating) ([12]; 63 g ai/ha): 0 | Post-emerge Herbicidal Activity CORN (crop damage rating) ([12]; 250 g ai/ha): 0 | Post-emerge Herbicidal Activity RICE (crop damage rating) ([13]; 63 g ai/ha): 0 | Post-emerge Herbicidal Activity RICE (crop damage rating) ([13]; 250 g ai/ha): 0 | phytotoxicity rating AMARE ([14]; 63 g ai/ha): 30 | phytotoxicity rating AMARE ([14]; 250 g ai/ha): 100 | phytotoxicity rating SETVI ([15]; 63 g ai/ha): 0 | phytotoxicity rating SETVI ([15]; 250 g ai/ha): 20 | phytotoxicity rating DIGSA ([16]; 63 g ai/ha): 0 | phytotoxicity rating DIGSA ([16]; 250 g ai/ha): 10 | phytotoxicity rating CHEAL ([17]; 63 g ai/ha): 20 | phytotoxicity rating CHEAL ([17]; 250 g ai/ha): 70 | phytotoxicity rating SORHA ([18]; 63 g ai/ha): 0 | phytotoxicity rating SORHA ([18]; 250 g ai/ha): 0 | phytotoxicity rating CASOB ([19]; 63 g ai/ha): 0 | phytotoxicity rating CASOB ([19]; 250 g ai/ha): 10 | phytotoxicity rating ECHCG ([20]; 63 g ai/ha): 0 | phytotoxicity rating ECHCG ([20]; 250 g ai/ha): 0 | phytotoxicity rating ABUTH ([21]; 63 g ai/ha): 0 | phytotoxicity rating ABUTH ([21]; 250 g ai/ha): 60 | phytotoxicity rating IPOHE ([22]; 63 g ai/ha): 0 | phytotoxicity rating IPOHE ([22]; 250 g ai/ha): 10
